According to US20180258064A1, “SOLID FORMS OF 3-(5-AMINO-2-METHYL-4-OXO-4H-QUINAZOLIN-3-YL)-PIPERIDINE-2,6-DIONE, AND THEIR PHARMACEUTICAL COMPOSITIONS AND USES” (Celgene Corporation, priority 2017, published 2018):
Structures can show the parent of a compound that is named as a salt. Blank lines part the entries; values can stand above or below the molecule they belong to.

Tests used:
[1] = Post-DVS XRPD (solid form after the DVS cycle); format: physicochemical; settings: XRPD pattern after DVS
From the text: The Rigaku Smart-Lab X-ray diffraction system was configured for reflection Bragg-Brentano geometry using a line source X-ray beam. The x-ray source is a Cu Long Fine Focus tube that was operated at 40 kV and 44 mA. That source provides an incident beam profile at the sample that changes from a narrow line at high angles to a broad rectangle at low angles. Beam conditioning slits are used on the line X-ray source to ensure that the maximum beam size is less than 10 mm both along the line and normal to the line. The Bragg-Brentano geometry is a para-focusing geometry controlled by passive divergence and receiving slits with the sample itself acting as the focusing component for the optics. The inherent resolution of Bragg-Brentano geometry is governed in part by the diffractometer radius and the width of the receiving slit used. Typically, the Rigaku Smart-Lab is operated to give peak widths of 0.1° 2θ or less. The axial divergence of the X-ray beam is controlled by 5.0° Soller slits in both the incident and diffracted beam paths. Powder samples were prepared in a low background Si holder using light manual pressure to keep the sample surfaces flat and level with the reference surface of the sample holder. Each sample was analyzed from 2 to 40° 2θ using a continuous scan of 6° 2θ per minute with an effective step size of 0.02° 2θ. DVS analysis was carried out using a TA Instruments Q5000 Dynamic Vapor Sorption analyzer. The instrument was calibrated with standard weights and a sodium bromide standard for humidity. Approximately 10-25 mg of sample was loaded into a metalcoated quartz pan for analysis. The sample was analyzed at 25° C. with a maximum equilibration time of one hour in 10% relative humidity (RH) steps from 5 to 95% RH (adsorption cycle) and from 95 to 5% RH (desorption cycle). The movement from one step to the next occurred either after satisfying the equilibrium criterion of 0.01% weight change or, if the equilibrium criterion was not met, after one hour. The percent weight change values were calculated using Microsoft Excel®.

[2] = Dynamic Vapor Sorption (DVS); format: physicochemical; settings: for DVS weight gain from 5 to 95% RH / DVS weight loss from 95 to 5% RH / DVS weight loss upon drying at 5% RH: 25° C.; for DVS weight gain from 5 to 95% RH: adsorption cycle 5 to 95% RH; for DVS weight loss from 95 to 5% RH: desorption cycle 95 to 5% RH
Procedure: DVS analysis was carried out using a TA Instruments Q5000 Dynamic Vapor Sorption analyzer. The instrument was calibrated with standard weights and a sodium bromide standard for humidity. Approximately 10-25 mg of sample was loaded into a metalcoated quartz pan for analysis. The sample was analyzed at 25° C. with a maximum equilibration time of one hour in 10% relative humidity (RH) steps from 5 to 95% RH (adsorption cycle) and from 95 to 5% RH (desorption cycle). The movement from one step to the next occurred either after satisfying the equilibrium criterion of 0.01% weight change or, if the equilibrium criterion was not met, after one hour. The percent weight change values were calculated using Microsoft Excel®.

[3] = listed as Form A of the mesylate salt of Compound 1
[4] = listed as Form A of the besylate salt of Compound 1
[5] = listed as Form A of the sulfate salt of Compound 1
[6] = listed as Form A of the tosylate salt of Compound 1

Post-DVS XRPD ([1]; listed as Mesylate Form A): Mesylate Form B
DVS weight gain from 5 to 95% RH [2, 3]: about 9.79%
DVS weight gain from 5 to 95% RH ([2]; listed as Mesylate Form A): 9.79% gain from 5 to 95% RH
DVS weight loss from 95 to 5% RH [2, 3]: about 7.98%
DVS weight loss from 95 to 5% RH ([2]; listed as Mesylate Form A): 7.98% loss from 95 to 5% RH
DVS weight loss upon drying at 5% RH ([2]; listed as Mesylate Form A): 0.17% loss upon drying at 5% RH
SMILES: Cc1nc2cccc(N)c2c(=O)n1C1CCC(=O)NC1=O (centres unmarked) [Compound 1 mesylate salt Form A, 3-(5-amino-2-methyl-4-oxo-4H-quinazolin-3-yl)-piperidine-2,6-dione]

Post-DVS XRPD ([1]; listed as Besylate Form A): Unchanged
DVS weight gain from 5 to 95% RH ([2]; listed as Besylate Form A): 4.31% gain from 5 to 95% RH
DVS weight gain from 5 to 95% RH [2, 4]: about 4.31%
DVS weight loss from 95 to 5% RH ([2]; listed as Besylate Form A): 4.31% loss from 95 to 5% RH
DVS weight loss from 95 to 5% RH [2, 4]: about 4.31%
DVS weight loss upon drying at 5% RH ([2]; listed as Besylate Form A): 0.16% loss upon drying at 5% RH
hygroscopicity ([2]; wording in text, based on DVS): moderately hygroscopic
SMILES: Cc1nc2cccc(N)c2c(=O)n1C1CCC(=O)NC1=O (centres unmarked) [Compound 1 besylate salt Form A, 3-(5-amino-2-methyl-4-oxo-4H-quinazolin-3-yl)-piperidine-2,6-dione]

Post-DVS XRPD [1]: unchanged
Post-DVS XRPD ([1]; listed as Sulfate Form A): Unchanged
DVS weight gain from 5 to 95% RH [2, 5]: about 5.36%
DVS weight gain from 5 to 95% RH ([2]; listed as Sulfate Form A): 5.36% gain from 5 to 95% RH
DVS weight loss from 95 to 5% RH [2, 5]: about 5.63%
DVS weight loss from 95 to 5% RH ([2]; listed as Sulfate Form A): 5.63% loss from 95 to 5% RH
DVS weight loss upon drying at 5% RH ([2]; listed as Sulfate Form A): 0.21% loss on drying at 5% RH
SMILES: Cc1nc2cccc(N)c2c(=O)n1C1CCC(=O)NC1=O (centres unmarked) [Compound 1 sulfate salt Form A, 3-(5-amino-2-methyl-4-oxo-4H-quinazolin-3-yl)-piperidine-2,6-dione]

Post-DVS XRPD ([1]; listed as Tosylate Form A): Tosylate form B
DVS weight gain from 5 to 95% RH [2, 6]: about 1.15%
DVS weight gain from 5 to 95% RH ([2]; listed as Tosylate Form A): 1.15% gain from 5 to 95% RH
DVS weight loss from 95 to 5% RH [2, 6]: about 1.17%
DVS weight loss from 95 to 5% RH ([2]; listed as Tosylate Form A): 1.17% loss from 95 to 5% RH
DVS weight loss upon drying at 5% RH ([2]; listed as Tosylate Form A): 0.14% loss upon drying at 5%
SMILES: Cc1nc2cccc(N)c2c(=O)n1C1CCC(=O)NC1=O (centres unmarked) [Compound 1 tosylate salt Form A, 3-(5-amino-2-methyl-4-oxo-4H-quinazolin-3-yl)-piperidine-2,6-dione]
